This assay has as its system HCC-2998. Kind of assay: Screening against cancer cell lines: HCC-2998 (Colon). In kind it is cell-based. An excerpt: Screening of Benzamide Derivatives Against Cancer Cell Lines Tables 1 and 2 tabulate by way of example the results obtained for compounds (4) and (6).
6 colon cancer cell lines were screened against both compound (4) and MS275.

Like-named read-outs stand apart in the source and are kept apart here.

With `C=C(CN1CCc2ccccc2C1)c1ccc(C(=O)Nc2ccccc2N)cc1` [Compound (4), N-(2-Amino-phenyl)-4-[1-(3,4-dihydroisoquinolin-2(1H)-ylmethyl)vinyl]benzamide], the TGI (HCC-2998, Colon, Table 1) came out at 400 nM. Moreover, the GI50 runs as follows: (Homo sapiens, HCC-2998, Colon, Table 1, read-out: GI50) 90 nM; (Homo sapiens, HCC-2998, colon cancer, comparison versus MS275, read-out: potency (quantity not named; values match GI50 of Table 1)) 90 nM. Besides, where the note is “Homo sapiens, HCC-2998, Colon, Table 1, read-out: LC50 (the source's name)”, the CC50 came to 2000 nM.

For the origin of these results see patent publication US20080234254A1, “Inhibitors of Histone Deacetylase” (UNIVERSITY OF LEEDS, priority 2004, published 2008).
